Consider one compound from article PMC7251123, “CX-5461 activates the DNA damage response and demonstrates therapeutic efficacy in high-grade serous ovarian cancer” (Nature Communications, 2020).

Each structure is given as a SMILES string.

In the assay the test system is G-quadruplex DNA (GQ) structures. The assay is described as follows: Immunofluorescence of GQ DNA (1H6 antibody). The class given is cell-based, human. The conditions noted are these: OVCAR8, OVCAR4 and OVCAR8 RAD51C KO cells; 1 h, 3 h and 24 h post-treatment; 1 μM. How it is done:
To examine the mechanism of activation of ATM/ATR signalling, we investigated the effects of CX-5461 treatment on the formation of GQ structures in OVCAR8, OVCAR8 RAD51C KO and OVCAR4 cells (Fig. 4a, b and Supplementary Fig. 4A–D).
Fig. 4 CX-5461 induces R-loops stabilization in HR-proficient OVCAR8 cells. a Co-immunofluorescence (Co-IF) of GQ DNA and UBF as a nucleolar marker in OVCAR8 cells and OVCAR8 RAD51C KO cells treated with either vehicle, 1 μM CX-5461 or 10 μM TMPyP4 for 3 h. Representative images of three biologically independent experiments. b Quantitation of GQ DNA immunofluorescence. Signal intensities were analyzed using CellProfiler. […] Representative images of two biologically independent experiments. d Quantitation of R-loops signal intensity was performed using CellProfiler. n = 230 cells per treatment condition were examined over two independent experiments. […] RNA was extracted and 47S rRNA precursor levels were determined using primers specific to the 5’ETS of pre-rRNA. Expression levels were normalized to NONO mRNA and expressed as a fold change relative to vehicle (n = 3 biologically independent experiments), error bars represent mean ± SEM, statistical analysis was performed using a two-sided one-way ANOVA, Tukey’s multiple comparisons test (adjusted p-values are shown). […]

Turning to `Cc1cnc(CNC(=O)c2c(=O)c3ccc(N4CCCN(C)CC4)nc3n3c2sc2ccccc23)cn1` [CX-5461], the GQ stabilization entry is listed as “did not induce GQ stabilization”.
